Source: patent US20250297015A1, “DRUG CONDITIONING REGIMEN FOR SICKLE CELL DISEASE” (NEW YORK BLOOD CENTER, INC., priority 2022, published 2025)
Entries after “also recorded” stand apart in the source; their conditions may differ.

Key:
Assay type in all cases: in vivo
SS Townes mice = assay: Peripheral blood response (Hb, Hct, reticulocytes, WBC) to GBT-1118 in SCD mouse model
Procedure: (§1) This study uses a SCD mouse model, SS Townes mice, to evaluate the effects of GBT-1118, the murine analog of voxelotor, to mobilize hematopoietic progenitor cells (HPC). GBT-1118 (approximately 16 mg/mouse/day) was administered via chow (4 grams of GBT-1118 per kg of chow) daily for a month. The mice were then administered a single dose of plerixafor (10 mg/kg) via subcutaneous injection. […] Peripheral blood was collected in all groups prior to and two-and three-weeks post treatment with GBT-1118 (or control) to assess hemoglobin (Hgb), hematocrit (Hct), aged neutrophils, and circulating HPCs. One to two hrs after plerixafor, peripheral blood was collected for circulating HPC (LSKF) enumeration. Assay results in the groups are compared using ANOVA or Kruskal-Wallis testing.

[1] = test system: peripheral blood hematopoietic progenitor cells (HPC), LSKF cells; assay: Mobilization of peripheral blood hematopoietic progenitor cells (LSKF) in SCD mouse model
Procedure: as §1
Gating with and without CD45^+ was performed due to the erythroid hyperplasia seen in SCD, where CD45^+ expression decreases along with erythroid maturation (Boulais et al. Immunity 49:627-639, 2018) and the degree of erythroid hyperplasia in each mouse was unknown. The percentage of CD45^+ cells ranged from 60-80% per sample. […] As red cell transfusion tends to decrease circulating hematopoietic stem cells (HSCs) (Tang A et al, Blood 2021), this may be due to the increased bone marrow HSCs (FIGS. 4A and 4B) spilling into peripheral blood due to residual mesenchymal stem cell dysfunction.

[2] = test system: bone marrow HPCs and hematopoietic stem cells (HSCs); assay: Bone marrow HPCs and HSCs with and without plerixafor in SCD mouse model; details: SS Townes mice
Procedure: as §1
(§2) Also evaluated were bone marrow HPCs and hematopoietic stem cells (HSCs) with and without plerixafor and peripheral blood inflammatory markers (aged neutrophils, sVAM-1, P-selectin, and E-selectin) with and without plerixafor.
Bone marrow LSK (Lin^−Sca1^+ckit^+) is a less HSC-specific measure than bone marrow HSC (Lin^−Sca1^+ckit+CD48^−CD150^+); the markers Flt3 and CD135 are not present in bone marrow as they are in peripheral blood.

[3] = test system: peripheral blood inflammatory markers; assay: Peripheral blood inflammatory markers (aged neutrophils, sVCAM-1, P-selectin, E-selectin) in SCD mouse model
Procedure: as §1, §2
There is an increase in the aged neutrophil population in SCD.
There is evidence that SCD is associated with a chronic inflammatory state. Therefore, inflammatory markers (sVCAM-1, P-selectin, and E-selectin) in the peripheral blood of mice treated with GBT-1118 alone or with plerixafor were evaluated. […] This increase may be related to increased WBC and absolute neutrophil counts (ANC). Plasma P-selectin and E-selectin were not increased with GBT-1118 alone or with plerixafor (FIGS. 6B and 6C).

plasma P-selectin ([3]; GBT-1118 alone (FIG. 6B)): not increased
plasma E-selectin ([3]; GBT-1118 alone (FIG. 6C)): not increased
plasma P-selectin ([3]; GBT-1118 with plerixafor (FIG. 6B)): not increased
plasma E-selectin ([3]; GBT-1118 with plerixafor (FIG. 6C)): not increased
plasma sVCAM-1 ([3]; after GBT-1118 treatment (FIG. 6A)): small but significant increase
peripheral blood aged neutrophils (CXCR4high CD62Llow) ([3]; post-mobilization with plerixafor, GBT-1118 versus control (FIG. 5A-B)): not statistically significant
Compound: O=Cc1c(O)cccc1OC[C@@H]1CCCCN1C(=O)c1cccnc1 [GBT-1118]
hemoglobin (Hb) (SS Townes mice; GBT-1118 via chow approx. 16 mg/mouse/day, peripheral blood before vs 2 and 3 weeks after treatment (FIG. 1A)): increase
hematocrit (Hct) (SS Townes mice; GBT-1118 via chow, before vs 2 and 3 weeks after treatment (FIG. 1B)): increase
percentage of reticulocytes (retic %) (SS Townes mice; GBT-1118 via chow, before vs 2 and 3 weeks after treatment (FIG. 1C)): decrease
number of white blood cells (WBC) (SS Townes mice; GBT-1118 via chow, before vs 2 and 3 weeks after treatment (FIG. 1D)): essentially unchanged
peripheral blood LSKF cell concentration ([1]; SS Townes mice, compared to control (FIG. 3B)): significantly increased
percentage of peripheral blood LSKF (Lin-Sca1+ckit+Flt3-CD135-) cells mobilized ([1]; with CD45+ gating, plerixafor mobilization, 1-2 h after plerixafor, compared to control animals (FIGS. 3A and 3C)): higher percentage
bone marrow HSCs, as % of Lin- cells ([2]; GBT-1118 alone versus control (FIG. 4A)): significantly increased
total number of bone marrow HSC per femur ([2]; GBT-1118 versus control (FIG. 4B)): trend towards an increase; also recorded: trend towards increased
